Measurements taken from patent US8378117B2 (priority 2005, dated 2013).
Like-named read-outs stand apart in the source and are kept apart here.

Tests used:
[1] = target: T1, CB2 receptor (Homo sapiens, UniProt P34972); experiment: Binding assay for CB2 agonists or inverse agonists (SK-N-MC membranes, [3H]-CP-55,940); conditions: for CB2 receptor binding percent inhibition: test concentration not stated
T1 construct: expressed in transfected cells
Procedure, shortened: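 Membranes from SK-N-MC cells stably expressing human CB2 were incubated with radioligand and test compounds for 90 min at 30 °C in Tris-HCl buffer, pH 7.5, with MgCl2, EDTA and fatty-acid-free BSA. Filter-bound radioactivity was counted; IC50 was derived by linear regression of percent inhibition.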

[2] = target: T2, CB1 receptor (Homo sapiens, UniProt P21554); experiment: Binding assay for CB1 agonists or inverse agonists (SK-N-MC membranes, [3H]-CP-55,940); conditions: for CB1 receptor binding average percent inhibition: value shown is an average percent inhibition (footnote 5), concentration not given; for IC50: Cannabinoid CB1 Receptor Binding IC50, calculated by linear regression from percent inhibition at various test concentrations
T2 construct: expressed in transfected cells
T2 sequence (P21554 whole entry): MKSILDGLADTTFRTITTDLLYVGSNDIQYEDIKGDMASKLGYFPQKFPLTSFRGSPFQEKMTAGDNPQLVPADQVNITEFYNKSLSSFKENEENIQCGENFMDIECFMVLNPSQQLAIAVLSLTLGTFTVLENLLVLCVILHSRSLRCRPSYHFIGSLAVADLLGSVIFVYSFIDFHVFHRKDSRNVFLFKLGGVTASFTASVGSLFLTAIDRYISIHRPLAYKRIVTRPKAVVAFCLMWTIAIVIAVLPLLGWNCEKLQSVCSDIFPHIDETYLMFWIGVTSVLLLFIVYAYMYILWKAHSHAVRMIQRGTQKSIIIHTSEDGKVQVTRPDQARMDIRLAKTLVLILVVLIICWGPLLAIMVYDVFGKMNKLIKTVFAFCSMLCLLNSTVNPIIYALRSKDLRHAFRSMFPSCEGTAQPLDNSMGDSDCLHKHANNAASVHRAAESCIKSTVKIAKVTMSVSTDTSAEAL
Procedure, shortened: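 Membranes from SK-N-MC cells stably expressing human CB1 incubated with compound and [3H]-CP-55,940 ([…]) for 90 min at 30° C in Tris-HCl pH 7.5, MgCl2, EDTA, fatty-acid-free BSA. Non-specific binding defined with 10 uM WIN 55,212; filtration, scintillation count; IC50 by linear regression.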

[3] = read-out: CB1 receptor binding percent inhibition, test concentration 1 μM (footnote 1)
[4] = read-out: CB1 receptor binding percent inhibition
[5] = test concentration 0.2 μM (footnote 2), read-out: CB2 receptor binding percent inhibition
[6] = read-out: CB1 receptor binding percent inhibition, test concentration 0.2 μM (footnote 2)
[7] = read-out: CB2 receptor binding percent inhibition, test concentration 0.2 μM (footnote 2)

T1 sequence (P34972 whole entry): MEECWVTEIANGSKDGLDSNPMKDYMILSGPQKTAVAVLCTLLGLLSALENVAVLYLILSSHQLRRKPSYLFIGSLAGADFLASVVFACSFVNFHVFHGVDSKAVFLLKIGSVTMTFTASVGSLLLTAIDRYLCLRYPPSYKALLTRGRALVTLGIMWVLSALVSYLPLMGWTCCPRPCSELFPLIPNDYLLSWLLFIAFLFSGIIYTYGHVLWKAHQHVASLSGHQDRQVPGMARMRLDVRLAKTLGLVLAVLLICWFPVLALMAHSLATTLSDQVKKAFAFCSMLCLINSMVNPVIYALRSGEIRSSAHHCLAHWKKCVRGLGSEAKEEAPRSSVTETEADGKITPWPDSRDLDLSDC

| Structure (SMILES) | CB2 receptor binding percent inhibition [1] | inhibition at 1 µM [2, 3] | also measured |
| --- | --- | --- | --- |
| O=C(NN1CCCCC1)c1nn(C2CCCCC2)c2c1CCCCC2Cc1ccc(F)cc1 (stereo not shown) [Cpd 62, 1-cyclohexyl-8-(4-fluoro-benzyl)-1,4,5,6,7,8-hexahydro-cycloheptapyrazole-3-carboxylic acid piperidin-1-ylamide] | 5% | 5% |  |
| O=C(NC1CC1)c1nn(C2CCCCC2)c2c1CCCCC2Cc1cccc(F)c1 (stereo not shown) [Cpd 49, 1-cyclohexyl-8-(3-fluoro-benzyl)-1,4,5,6,7,8-hexahydro-cycloheptapyrazole-3-carboxylic acid cyclopropylamide] | 9% | 33% |  |
| O=C(NC1CC1)c1nn(Cc2ccc(Cl)cc2)c2c1CCCCC2Cc1ccc(Cl)cc1 (stereo not shown) [Cpd 34, 1,8-bis-(4-chloro-benzyl)-1,4,5,6,7,8-hexahydro-cycloheptapyrazole-3-carboxylic acid cyclopropylamide] | 0% | 0% |  |
| COC(=O)[C@H](Cc1ccc(F)cc1)NC(=O)c1nn(-c2ccc(Cl)cc2Cl)c2c1CCCCC2Cc1ccc(F)cc1 (stereo partly drawn) [Cpd 72, (2S)-2-{[1-(2,4-dichloro-phenyl)-8-(4-fluoro-benzyl)-1,4,5,6,7,8-hexahydro-cycloheptapyrazole-3-carbonyl]-amino}-3-(4-fluoro-phenyl)-propionic acid methyl ester] | 10% |  | CB1 receptor binding average percent inhibition [2]: ^(5)38% |
| O=C(NC1CCCCC1)c1nn(C2CCCCC2)c2c1CCCCC2Cc1cccc(F)c1 (stereo not shown) [Cpd 51, 1-cyclohexyl-8-(3-fluoro-benzyl)-1,4,5,6,7,8-hexahydro-cycloheptapyrazole-3-carboxylic acid cyclohexylamide] | 30% | 36% |  |
| CC(NC(=O)c1nn(C2CCCCC2)c2c1CCCCC2Cc1cccc(Cl)c1)C12CC3CC(CC(C3)C1)C2 (stereo not shown) [Cpd 10, 8-(3-chloro-benzyl)-1-cyclohexyl-1,4,5,6,7,8-hexahydro-cycloheptapyrazole-3-carboxylic acid (1-adamantan-1-yl-ethyl)-amide] | 8% | 0% |  |
| O=C(NC1CC1)c1nn(C2CCCCC2)c2c1CCCCC2Cc1ccc(Cl)cc1 (stereo not shown) [Cpd 33, 8-(4-chloro-benzyl)-1-cyclohexyl-1,4,5,6,7,8-hexahydro-cycloheptapyrazole-3-carboxylic acid cyclopropylamide] | 0% | 0% |  |
| Cn1nc(C(=O)NC2CCC2)c2c1C(Cc1ccccc1Cl)CCCC2 (stereo not shown) [Cpd 39, 8-(2-chloro-benzyl)-1-methyl-1,4,5,6,7,8-hexahydro-cycloheptapyrazole-3-carboxylic acid cyclobutylamide] | 30% | 0% |  |
| O=C(NC1CCC1)c1nn(C2CCCCC2)c2c1CCCCC2Cc1cccc(F)c1 (stereo not shown) [Cpd 43, 1-cyclohexyl-8-(3-fluoro-benzyl)-1,4,5,6,7,8-hexahydro-cycloheptapyrazole-3-carboxylic acid cyclobutylamide] | 42% | 14% |  |
| O=C(NCc1ccccc1)c1nn(C2CCCCC2)c2c1CCCCC2Cc1ccc(F)cc1 (stereo not shown) [Cpd 61, 1-cyclohexyl-8-(4-fluoro-benzyl)-1,4,5,6,7,8-hexahydro-cycloheptapyrazole-3-carboxylic acid benzylamide] | 71% | 36% |  |
| CC12CCC(C1)C(C)(C)[C@H]2NC(=O)c1nn(C2CCCCC2)c2c1CCCCC2Cc1cccc(F)c1 (stereo partly drawn) [Cpd 44, 1-cyclohexyl-8-(3-fluoro-benzyl)-1,4,5,6,7,8-hexahydro-cycloheptapyrazole-3-carboxylic acid [(2S)-1,3,3-trimethyl-bicyclo[2.2.1]hept-2-yl]-amide] |  |  | IC50 ([1]; calculated by linear regression from percent inhibition at various test concentrations, read-out: Cannabinoid CB2 Receptor Binding IC50): 0.6 µM; inhibition at 1 µM ([1]; test concentration 1 μM (footnote 1), read-out: CB2 receptor binding percent inhibition): 75%; IC50 [2]: 0.2 µM; inhibition at 1 µM [2, 4]: 82% |
| O=C(N[C@@H](CO)Cc1ccccc1)c1nn(-c2ccc(Cl)cc2Cl)c2c1CCCCC2Cc1cccc(Cl)c1 (stereo partly drawn) [Cpd 163, 8-(3-chloro-benzyl)-1-(2,4-dichloro-phenyl)-1,4,5,6,7,8-hexahydro-cycloheptapyrazole-3-carboxylic acid [(1R)-1-benzyl-2-hydroxy-ethyl]-amide] |  |  | inhibition at 0.2 µM [1, 5]: 7%; inhibition at 0.2 µM [2, 6]: 44% |
| O=C(NCc1ccccc1)c1nn(C2CCCCC2)c2c1CCCCC2Cc1cccc(F)c1 (stereo not shown) [Cpd 53, 1-cyclohexyl-8-(3-fluoro-benzyl)-1,4,5,6,7,8-hexahydro-cycloheptapyrazole-3-carboxylic acid benzylamide] | 52% | 33% |  |
| Cc1ccc(CC2CCCCc3c(C(=O)NC4C5(C)CCC(C5)C4(C)C)nn(-c4ccc(F)cc4)c32)cc1 (stereo not shown) [Cpd 1, 1-(4-fluoro-phenyl)-8-(4-methyl-benzyl)-1,4,5,6,7,8-hexahydro-cycloheptapyrazole-3-carboxylic acid (1,3,3-trimethyl-bicyclo[2.2.1]hept-2-yl)-amide] |  |  | IC50 ([1]; Cannabinoid CB2 Receptor Binding IC50, calculated by linear regression from percent inhibition at various test concentrations): 0.3 µM; IC50 [2]: 0.2 µM |
| C[C@@H](NC(=O)c1nn(-c2cc(Cl)ccc2Cl)c2c1CCCC/C2=C\c1ccc(Cl)cc1)c1ccccc1 [Cpd 195, (8E)-8-(4-chloro-benzylidene)-1-(2,5-dichloro-phenyl)-1,4,5,6,7,8-hexahydro-cycloheptapyrazole-3-carboxylic acid [(1R)-1-phenyl-ethyl]-amide] |  |  | inhibition at 0.2 µM [1, 7]: 37%; inhibition at 0.2 µM [2, 4]: 63% |
| O=C(NC1CCC1)c1nn(-c2ccc(Cl)cc2Cl)c2c1CCCCC2Cc1ccc(F)cc1 (stereo not shown) [Cpd 70, 1-(2,4-dichloro-phenyl)-8-(4-fluoro-benzyl)-1,4,5,6,7,8-hexahydro-cycloheptapyrazole-3-carboxylic acid cyclobutylamide] | 3% |  | CB1 receptor binding average percent inhibition [2]: ^(5)37% |
| O=C(N[C@H](CCl)c1ccccc1)c1nn(-c2nccc(C(F)(F)F)n2)c2c1CCCCC2Cc1cccc(Cl)c1 (stereo partly drawn) [Cpd 179, 8-(3-chloro-benzyl)-1-(4-trifluoromethyl-pyrimidin-2-yl)-1,4,5,6,7,8-hexahydro-cycloheptapyrazole-3-carboxylic acid [(1S)-2-chloro-1-phenyl-ethyl]-amide] |  |  | inhibition at 0.2 µM [1, 5]: 29%; inhibition at 0.2 µM [2, 6]: 0% |
| O=C(NN1CCCCC1)c1nn(-c2ccncc2)c2c1CCCC/C2=C\c1ccc(Cl)cc1 [Cpd 182, (8E)-8-(4-chloro-benzylidene)-1-pyridin-4-yl-1,4,5,6,7,8-hexahydro-cycloheptapyrazole-3-carboxylic acid piperidin-1-ylamide] |  |  | inhibition at 0.2 µM [1, 5]: 31%; inhibition at 0.2 µM [2, 6]: 21% |
| CCOC(=O)[C@@H]1C2CCC(C2)[C@@H]1NC(=O)c1nn(C2CCCCC2)c2c1CCCCC2Cc1cccc(F)c1 (stereo partly drawn) [Cpd 105, (2R,3S)-3-{[1-cyclohexyl-8-(3-fluoro-benzyl)-1,4,5,6,7,8-hexahydro-cycloheptapyrazole-3-carbonyl]-amino}-bicyclo[2.2.1]heptane-2-carboxylic acid ethyl ester] | 82% | 2% |  |
| O=C(N[C@@H]1c2ccccc2C[C@@H]1O)c1nn(C2CCCCC2)c2c1CCCCC2Cc1ccc(F)cc1 (relative stereo) [Cpd 121, (8S*)-1-cyclohexyl-8-(4-fluoro-benzyl)-1,4,5,6,7,8-hexahydro-cycloheptapyrazole-3-carboxylic acid [(1R,2S)-2-hydroxy-indan-1-yl]-amide] | 95% | 80% | IC50 [2]: 0.4 µM; inhibition at 0.5 µM ([2]; read-out: CB1 receptor binding percent inhibition, test concentration 0.5 μM (footnote 10)): 70% |
| CC12CCC(C1)C(C)(C)[C@H]2NC(=O)c1nn(-c2ccc(Cl)cc2Cl)c2c1CCCCC2Cc1cccc(Cl)c1 (stereo partly drawn) [Cpd 15, 8-(3-chloro-benzyl)-1-(2,4-dichloro-phenyl)-1,4,5,6,7,8-hexahydro-cycloheptapyrazole-3-carboxylic acid [(2S)-1,3,3-trimethyl-bicyclo[2.2.1]hept-2-yl]-amide] | 54% | 58% |  |
| C[C@H](NC(=O)c1nn(-c2ccccc2Cl)c2c1CCCC/C2=C\c1ccc(Cl)cc1)C1CCCCC1 [Cpd 192, (8E)-8-(4-chloro-benzylidene)-1-(2-chloro-phenyl)-1,4,5,6,7,8-hexahydro-cycloheptapyrazole-3-carboxylic acid [(1S)-1-cyclohexyl-ethyl]-amide] |  |  | inhibition at 0.2 µM [1, 7]: 7%; inhibition at 0.2 µM [2, 6]: 45% |
| Cn1nc(/C=C/S(=O)(=O)NN2CCOCC2)c2c1C(Cc1ccc(F)cc1)CCCC2 (stereo not shown) [Cpd 126, (2E)-2-[8-(4-fluoro-benzyl)-1-methyl-1,4,5,6,7,8-hexahydro-cycloheptapyrazol-3-yl]-ethenesulfonic acid morpholin-4-ylamide] | 65% | 0% |  |
| CC12CCC(C1)C(C)(C)[C@H]2NC(=O)c1nn(-c2ccc(Cl)cc2Cl)c2c1CCCCC2Cc1ccc(F)cc1 (stereo partly drawn) [Cpd 71, 1-(2,4-dichloro-phenyl)-8-(4-fluoro-benzyl)-1,4,5,6,7,8-hexahydro-cycloheptapyrazole-3-carboxylic acid [(2S)-1,3,3-trimethyl-bicyclo[2.2.1]hept-2-yl]-amide] | 32% |  | CB1 receptor binding average percent inhibition [2]: ^(5)43% |
